Patent US20090023186A1, “USE OF VALPROIC ACID FOR ENHANCING PRODUCTION OF RECOMBINANT PROTEINS IN MAMMALIAN CELLS” (EXCELLGENE SA, priority 2007, published 2009)

Key:
[1] = test system: CHO DG44 cells; experiment: Influence of temperature on IgG batch titer and comparison with sodium butyrate (Example 2); assay type: cell-based, Chinese Hamster; conditions: day 5 after transfection
Description: No. 14571C-[…]; Lot No. 6A0093; SAFC Biosciences, Lenexa, Kans., USA, “Ex-Cell” medium; note: “Ex-Cell” medium-as used herein-refers to a medium comprising 4 mmol/l L-glutamine) in a 50-ml filter tube each (TPP AG, Trasadingen, Switzerland; Cat. No. 87050, Lot 20050174). In a separate set, 10 million suspension-adapted CHO DG44 cells were resuspended in 0.5 ml of ProCHO5 serum-free medium with 4 mmol/[…] hypoxanthine and 0.194 g/l thymidine (BioWhittaker (Lonza), Belgium; Cat. No. BE12-[…]; Lot No. 7 MB0040; “ProCHO5” medium; note: “ProCHO5” medium-as used herein-refers to a medium comprising 4 mmol/[…] hypoxanthine and 0.194 g/l thymidine) in a 50-ml filter tube each (TPP AG, Trasadingen, Switzerland; Cat. No. 87050, Lot 20050174). Then 12.5 μg plasmid DNA at a concentration of 1 μg/μl was added in each tube with the following composition 50% (6.25 μg) p-LC (SEQ ID NO: 1) 50% (6.25 μg) p-HC (SEQ ID NO: 3). Plasmid p-LC comprises the genetic information for the production of the light chain of an IgG antibody, plasmid p-HC comprises the genetic information for the production of the heavy chain of an IgG antibody. The particular vector constructs used in the present invention can also be obtained from the inventors. The inventors can be contacted via e-mail at […]. Moreover, commercial services do exist that produce any desired nucleotide sequence even comprising several kilobase pairs including complete expression cassettes in plasmid backgrounds (e.g., Invitrogen, Carlsbad, USA; Geneart, Germany.) Thus, providing the genetic sequence information of the plasmids should enable one of ordinary skill in the art to order the plasmids of the present invention at one of the commercial services listed. After shortly mixing the DNA with the cells by gentle shaking, 25 μg of 25-kd linear polyethyleneimine (“PEI”; Polysciences, Eppelheim, Germany; [2]) were added at a concentration of 1 μg/μl to each of the tubes. After shortly mixing by gentle shaking, the filter tubes containing the cells together with the DNA and PEI were transferred into an orbital shaker (Kühner Shaker Cabinet ISF-4-W, “Kühner shaker”, Kühner AG, Birsfelden, Switzerland), and the cells were incubated for 4 hours at 37° C. in a 5% CO2 atmosphere under shaking at 180 rpm. After that time, 4.5 ml of Ex-Cell medium were added to each of the filter tubes containing HEK 293 cells and 4.5 ml of Pro-CHO5 were added to each of the filter tubes containing CHO DG44 cells. […] No. […] Sigma-Aldrich Chemie GmbH, Industriestrasse 25, CH-9471 Buchs SG) was added to the corresponding tubes at the corresponding final concentrations. The cells then were returned into the Kühner shaker. Half the tubes were incubated at 37° C. in a 5% CO2 atmosphere under shaking at 180 rpm, the other half was incubated at 31° C. […] The ELISA was performed as published in prior art. In short, Goat anti-human kappa light chain IgG (Biosource) was used for coating the ELISA-plates, and with AP-conjugated goat anti-human gamma chain IgG (Biosource) the synthesized IgG1 was detected. NPP was used as a substrate for the alkaline phosphatase. Absorption was measured at 405 nm against 490 nm using a microplate reader (SPECTRAmaxTM340; Molecular Devices, Palo Alto, Calif., USA).

[2] = test system: HEK293E cells; experiment: Preferred embodiment: transient IgG expression with p18 and p21 co-transfection, batch titer by ELISA; assay type: cell-based, Human; conditions: day 14 after transfection
Description: 20 million suspension-adapted HEK293E cells were resuspended in 1 ml of Ex-Cell 293 HEK 293 serum-free medium with 4 mmol/l L-glutamine (Cat. No. 14571C-[…]; Lot No. 6A0093; SAFC Biosciences, Lenexa, Kans., USA, “Ex-Cell” medium; note: “Ex-Cell” medium-as used herein-refers to a medium comprising 4 mmol/l L-glutamine) in a 50-ml filter tube each (TPP AG, Trasadingen, Switzerland; Cat. No. 87050, Lot 20050174). Then 50 μg plasmid DNA at a concentration of 1 μg/μl was added in each tube with the following composition […] Plasmid p-LC comprises the genetic information for the production of the light chain of an IgG antibody, plasmid p-HC comprises the genetic information for the production of the heavy chain of an IgG antibody, plasmid p-p18 comprises the genetic information for the protein p18, and plasmid p-p21 comprises the genetic information for the protein p21. The particular vector constructs used in the present invention can also be obtained from the inventors. The inventors can be contacted via e-mail at […]. Moreover, commercial services do exist that produce any desired nucleotide sequence even comprising several kilobase pairs including complete expression cassettes in plasmid backgrounds (e.g., Invitrogen, Carlsbad, USA; Geneart, Germany.) Thus, providing the genetic sequence information of the plasmids should enable one of ordinary skill in the art to order the plasmids of the present invention at one of the commercial services listed. After shortly mixing the DNA with the cells by gentle shaking, 100 μg of 25-kd linear polyethyleneimine (“PEI”; Polysciences, Eppelheim, Germany; [2]) were added at a concentration of 1 μg/μl to each of the tubes. After shortly mixing by gentle shaking, the filter tubes containing the cells together with the DNA and PEI were transferred into an orbital shaker (Kühner Shaker Cabinet ISF-4-W, “Kühner shaker”, Kühner AG, Birsfelden, Switzerland), and the cells were incubated for 3 hours at 37° C. in a 5% CO2 atmosphere under shaking at 180 rpm. After that time, 4 ml of Ex-Cell medium were added to each of the filter tubes. […] No. B5887-1G; Sigma-Aldrich Chemie GmbH, Industriestrasse 25, CH-9471 Buchs SG) was added to the corresponding tubes at the corresponding final concentrations. […] The ELISA was performed as published in prior art. In short, Goat anti-human kappa light chain IgG (Biosource) was used for coating the ELISA-plates, and with AP-conjugated goat anti-human gamma chain IgG (Biosource) the synthesized IgG1 was detected. NPP was used as a substrate for the alkaline phosphatase. Absorption was measured at 405 nm against 490 nm using a microplate reader (SPECTRAmaxTM340; Molecular Devices, Palo Alto, Calif., USA).

[3] = 3.8 mmol/l VPA, relative to control = 1

**Q.** What does the source list for `CCCC(CCC)C(=O)O` [VPA, valproic acid]?
**A.** Batch titer increase at 31° C. [1, 3]: 1.5 ± 0.1; Batch titer increase at 37° C. [1, 3]: 2.1 ± 0.1; performance compared with sodium butyrate (batch titer increase) ([1]; 31° C. and 37° C.): slightly better performance than sodium butyrate; Batch titer ([2]; 3.8 mmol/l VPA, IgG with p18 and p21): 962 ± 73 mg/L; Fold increase over control ([2]; 3.8 mmol/l VPA): 13.2 fold; batch titers compared to adding sodium butyrate [2]: higher
